Patent US20230066011A1, “PYRROLOPYRIMIDINE DERIVATIVE, AND PHARMACEUTICAL COMPOSITION FOR PREVENTING OR TREATING PROTEIN KINASE-RELATED DISEASE COMPRISING SAME AS ACTIVE INGREDIENT” (VORONOI CO., LTD., priority 2019, published 2023)

Legend:
[1] = target: T1, human GST-DYRK1A (Homo sapiens, UniProt Q13627); test: GST-DYRK1A enzyme inhibition, ADP-Glo kinase assay; assay type: biochemical; conditions: ATP 10 μM, GST-DYRK1A full length, read-out: DYRK1 IC50
T1 construct: purified human GST-DYRK1A (full length, Thermo Scientifics) enzyme; purchased Thermo Scientifics
Description: (§1) To evaluate an inhibitory activity of the compound according to the present invention against LRRK2, LRRK2 (G2019S), DYRK1, CLK1, and TTK kinases, experiments were performed as follows.
(§2) Each of the Example compounds was reacted with a purified human GST-DYRK1A (full length, Thermo Scientifics) enzyme to evaluate an ability to inhibit an enzyme using a method as described below. A composition of 40 mM Tris-HCl (pH 7.4), 20 mM MgCl2, 0.5 mg/mL BSA, and 50 μM DTT was used as a reaction buffer, and all reactions of test substances were performed in the reaction buffer. In the test, purified ATP (10 μM) and a specific substrate solution were reacted with a human GST-DYRK1A (full length, 10 ng) enzyme at 25° C. for an hour, and the enzyme activities were then determined using an in vitro ADP-Glo™ kinase assay (Promega). An enzyme-activity reaction solution, an ADP-Glo reaction solution, and an enzyme-ability detection solution were reacted at a ratio of 2:2:1 to measure a degree of inhibition of the enzyme activity with luminescence. The degree of inhibition of the enzyme activity according to the treatment concentration of each of the compounds was calculated based on the fluorescence of the enzyme activity of the solvent control which was not treated with the compound. In this case, the concentration of each of the compounds inhibiting 50% of the enzyme activity was determined to be an IC50 (nM) value, and the IC50 (nM) value of each of the compounds was determined from 3 sets of data, and calculated using Prism (Version 5.01; GraphPad) software.

[2] = target: T2, human GST-CLK1 (Homo sapiens, UniProt P49759); test: GST-CLK1 enzyme inhibition, ADP-Glo kinase assay; assay type: biochemical; conditions: ATP 10 μM, GST-CLK1 129-end
T2 construct: purified human GST-CLK1 (129-end, SignalChem) enzyme; purchased SignalChem
T2 sequence (P49759 129-484 limits assumed): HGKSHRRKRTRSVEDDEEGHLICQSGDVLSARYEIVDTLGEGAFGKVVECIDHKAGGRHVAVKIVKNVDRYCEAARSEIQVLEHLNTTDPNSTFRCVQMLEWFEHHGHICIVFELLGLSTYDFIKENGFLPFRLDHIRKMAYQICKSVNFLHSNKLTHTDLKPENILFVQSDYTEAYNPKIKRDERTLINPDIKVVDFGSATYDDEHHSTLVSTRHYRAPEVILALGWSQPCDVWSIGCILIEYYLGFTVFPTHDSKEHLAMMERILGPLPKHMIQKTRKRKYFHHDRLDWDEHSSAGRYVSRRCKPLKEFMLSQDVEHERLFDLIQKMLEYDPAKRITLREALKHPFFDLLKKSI
Description: as §1
as §2, with “GST-CLK1 (129-end, SignalChem)” for “GST-DYRK1A (full length, Thermo Scientifics)”, “GST-CLK1 (129-end, 3” for “GST-DYRK1A (full length, 10”, “value. The” for “value, and the”

Compound	IC50 [1]	IC50 [2]
CC(C)Nc1nc(Nc2ccc(C(=O)N3CC(CO)(CO)C3)c3c2OCCO3)nc2[nH]cc(C#N)c12 [Example 329, 2-((8-(3,3-bis (hydroxymethyl)azetidine-1-carbonyl)-2,3-dihydrobenzo[b] [1,4]dioxin-5-yl)amino)-4-(isopropylamino)-7H-pyrrolo[2,3-d]pyrimidine-5-carbonitrile]	301 to 1000 nM	< 100 nM
CC[C@@H](C)Nc1nc(Nc2ccc(S(C)(=O)=O)cc2OC)nc2[nH]cc(C#N)c12 [Example 262, (R)-4-(sec-butylamino)-2-((2-methoxy-4-(methylsulfonyl)phenyl)amino)-7H-pyrrolo[2,3-d]pyrimidine-5-carbonitrile]	301 to 1000 nM	301 to 1000 nM
CCCNc1nc(Nc2ccc(C(=O)N3CCOCC3)c3c2OCC3)nc2[nH]cc(C#N)c12 [Example 348, 2-((4-(morpholine-4-carbonyl)-2,3-dihydrobenzo-furan-7-yl)amino)-4-(propylamino)-7H-pyrrolo[2,3-d]pyrimidine-5-carbonitrile]	301 to 1000 nM	< 100 nM
CS(=O)(=O)CCNc1nc(Nc2ccc(C(=O)N3CCOCC3)c3c2OCC3)nc2[nH]cc(C#N)c12 [Example 344, 4-((2-(methyl-sulfonyl)eth-yl)amino)-2-((4-(morpholine-4-carbonyl)-2,3-dihydrobenzo-furan-7-yl)amino)-7H-pyrrolo[2,3-d]pyrimidine-5-carbonitrile]	301 to 1000 nM	< 100 nM
CC(C)CNc1nc(Nc2ccc(C(=O)N3CC(CO)(CO)C3)c3c2OCCO3)nc2[nH]cc(C#N)c12 [Example 328, 2-((8-(3,3-bis (hydroxymethyl)azetidine-1-carbonyl)-2,3-dihydrobenzo[b] [1,4]dioxin-5-yl)amino)-4-(isobutylamino)-7H-pyrrolo[2,3-d]pyrimidine-5-carbonitrile]	301 to 1000 nM	< 100 nM
N#Cc1c[nH]c2nc(Nc3ccc(C(=O)N4CCOCC4)c4c3OCC4)nc(NC3CCC3)c12 [Example 360, 4-(cyclo-butylamino)-2-((4-(morpholine-4-carbonyl)-2,3-dihydrobenzo-furan-7-yl)amino)-7H-pyrrolo[2,3-d]pyrimidine-5-carbonitrile]	101 to 300 nM	< 100 nM
CC[C@@H](C)Nc1nc(Nc2ccc(S(C)(=O)=O)cc2OC)nc2[nH]ccc12 [Example 16, (R)-N^4-(sec-butyl)-N^2-(2-methoxy-4-(4-methylsulfonyl)phenyl)-7H-pyrrolo[2,3-d]pyrimidine-2,4-diamine]	301 to 1000 nM	301 to 1000 nM
CCCCNc1nc(Nc2ccc(P(C)(C)=O)cc2OC)nc2[nH]cc(C#N)c12 [Example 275, 4-(butylamino)-2-((4-(dimethylphosphoryl)-2-methoxyphenyl)amino)-7H-pyrrolo[2,3-d]pyrimidine-5-carbonitrile]	301 to 1000 nM	101 to 300 nM
COCCNc1nc(Nc2ccc(S(C)(=O)=O)cc2OC)nc2[nH]cc(C(N)=O)c12 [Example 234, 2-((2-methoxy-4-(methylsulfonyl)phenyl)amino)-4-((2-methoxy)amino)-7H-pyrrolo[2,3-d]pyrimidine-5-carboxamide]	301 to 1000 nM	301 to 1000 nM

Other lines, results leading:

IC50 [1]	IC50 [2]	Compound
301 to 1000 nM	< 100 nM	COc1cc(P2(=O)CCN(C3CC3)CC2)ccc1Nc1nc(NC(C)C)c2c(C#N)c[nH]c2n1 [Example 292, 2-((4-(1-cyclopropyl-4-oxido-1,4-azaphosphinan-4-yl)-2-methoxyphenyl)a-mino)-4-(isopropylamino)-7H-pyrrolo[2,3-d]pyrimidine-5-carbonitrile]
301 to 1000 nM	301 to 1000 nM	COc1cc(P2(=O)CCN(C3COC3)CC2)ccc1Nc1nc(NC2CCOCC2)c2c(C#N)c[nH]c2n1 [Example 303, 2-((2-methoxy-4-(1-(oxetan-3-yl)-4-oxido-1,4-azaphosphinan-4-yl)phenyl)amino)-4-((tetrahydro-2H-pyran-4-yl)amino)-7H-pyrrolo[2,3-d]pyrimidine-5-carbonitrile]
301 to 1000 nM	301 to 1000 nM	COc1cc(P2(=O)CCN(C3COC3)CC2)ccc1Nc1nc(NCC2CCCC2)c2c(C#N)c[nH]c2n1 [Example 309, 4-((cyclo-pentylmeth-yl)amino)-2-((2-methoxy-4-(1-(oxetan-3-yl)-4-oxido-1,4-azaphosphinan-4-yl)phenyl)amino)-7H-pyrrolo[2,3-d]pyrimidine-5-carbonitrile]
301 to 1000 nM	< 100 nM	CC(C)CNc1nc(Nc2ccc(C(=O)N3CCC(N4CCOCC4)CC3)c3c2OCC3)nc2[nH]cc(C#N)c12 [Example 351, 4-(isobutyl-amino)-2-((4-(4-morpholino-piperidine-1-carbonyl)-2,3-dihydro-benzofuran-7-yl)amino)-7H-pyrrolo[2,3-d]pyrimidine-5-carbonitrile]
301 to 1000 nM	< 100 nM	CC(C)CNc1nc(Nc2ccc(C(=O)N3CCC(N4CCOCC4)CC3)c3c2OCCO3)nc2[nH]cc(C#N)c12 [Example 139, 4-(isobutylamino)-2-((8-(4-morpholinopiperidine-1-carbonyl)-2,3-dihydrobenzo[b][1,4]dioxin-5-yl)amino)-7H-pyrrolo[2,3-d]pyrimidine-5-carbonitrile]
301 to 1000 nM	< 100 nM	CC[C@@H](C)Nc1nc(Nc2ccc(P3(=O)CCN(C4COC4)CC3)cc2OC)nc2[nH]cc(C#N)c12 [Example 295, (R)-4-(sec-butylamino)-2-((2-methoxy-4-(1-(oxetan-3-yl)-4-oxido-1,4-azaphosphinan-4-yl)phenyl)amino)-7H-pyrrolo[2,3-d]pyrimidine-5-carbonitrile]
301 to 1000 nM	301 to 1000 nM	COc1cc(P(C)(C)=O)ccc1Nc1nc(NCC2CCCC2)c2c(C#N)c[nH]c2n1 [Example 274, 4-((cyclopentylmethyl)amino)-2-((4-(dimethylphosphoryl)-2-methoxyphenyl)amino)-7H-pyrrolo[2,3-d]pyrimidine-5-carbonitrile]
301 to 1000 nM	101 to 300 nM	COc1cc(P(C)(C)=O)ccc1Nc1nc(NC2CCCC2)c2c(C#N)c[nH]c2n1 [Example 269, 4-(cyclopentylamino)-2-((4-(dimethylphosphoryl)-2-methoxyphenyl)amino)-7H-pyrrolo[2,3-d]pyrimidine-5-carbonitrile]
301 to 1000 nM	301 to 1000 nM	COCCNc1nc(Nc2ccc(S(=O)(=O)N3CCC(N4CCOCC4)CC3)cc2OC)nc2[nH]cc(C(N)=O)c12 [Example 233, 2-((2-methoxy-4-((4-morpholinopiperidin-1-yl)sulfonyl)phenyl)amino)-4-((2-methoxyethyl)amino)-7H-pyrrolo[2,3-d]pyrimdiine-5-carboxamide]
101 to 300 nM	< 100 nM	COc1cc(P2(=O)CCN(C3COC3)CC2)ccc1Nc1nc(NC(C)C)c2c(C#N)c[nH]c2n1 [Example 293, 4-(isopropylamino)-2-((2-methoxy-4-(1-(oxetan-3-yl)-4-oxido-1,4-azaphosphinan-4-yl)phenyl)amino)-7H-pyrrolo[2,3-d]pyrimidine-5-carbonitrile]
301 to 1000 nM	< 100 nM	N#Cc1c[nH]c2nc(Nc3ccc(C(=O)N4CCN(C5COC5)CC4)c4c3OCCO4)nc(NCC3CC3)c12 [Example 317, 4-((cyclo-propylmeth-yl)amino)-2-((8-(4-(oxetan-3-yl)piperazine-1-carbonyl)-2,3-dihydrobenzo[b] [1,4]dioxin-5-yl)amino)-7H-pyrrolo[2,3-d]pyrimidine-5-carbonitrile]
